{"source": "patent US6676950B2", "about": "“Neurokinin receptor antagonists and methods of use thereof for inhibiting HIV infection” (The Children's Hospital of Philadelphia, priority 2001, dated 2004)", "tested_on": "HIV Bal strain", "assay": "HIV-induced syncytia formation in MDM", "format": "cell-based", "conditions": "10^−7M; 12 days after infection; light microscope", "protocol": "Syncytia formation: To study the effect of neuropeptide antagonists on HIV-induced syncytia formation in MDM, 7-day-cultured macrophages were incubated in the presence or absence of CP-96,345 (10^−7M) for 2 h and then infected with HIV Bal strain. MDM which were neither incubated with CP-96,345 nor infected with HIV were used as a cell culture control. The morphology of HIV-induced syncytia formation was observed and photographed by a light microscopy (X 400) 12 days after HIV infection.", "data": [{"smiles": "COc1ccccc1CN[C@H]1C2CCN(CC2)[C@H]1C(c1ccccc1)c1ccccc1", "note": "[CP-96,345, [2S,3S)-cis-2-(diphenylmethyl)-N-[(2-methoxyphenyl)-methyl]-1-azabicyclo [[2.2.2]-octan-3-amine]]", "values": [{"measurement": "giant syncytia formation induced by HIV Bal strain infection", "value": "failed to develop the giant syncytia"}]}]}
